From US20140259191A1, “FISH ANESTHETIC AND METHOD” (AQUA-MOR TECHNOLOGIES LTD., priority 2011, published 2014)

Columns and labels:
[1] = test system: Koi fish; experiment: Anesthesia of Koi fish by linalool added to tank water; format: in vivo
Method: (§1) A one year old koi fish of body length 11 cm and which appeared to be healthy was placed in a 4 liter tank containing water at 25° C. and in which the water was circulated by means of aeration. A liquid a mixture containing 1 wt. % synthetic linalool (1 wt. % linalool, 5 wt. % 14R, 2 wt. % AF80 and 92 wt. % water) was added to the tank and manually mixed with the water so that the concentration of linalool in the water was 50 ppm. This was regarding as the starting time of the experiment; thereafter, observations were made regularly to determine the behavior of the fish in water. This continued until no response to external stimulation and complete loss of equilibrium were observed, at which point the fish was transferred to a recovery tank containing fresh water. The fish was placed near the air pump, and the time until the fish again swam and responded normally to external stimulation was recorded.
(§2) The experiment of Example 1 was repeated, using a one year old Koi fish of 12 cm body length, and adding the linalool formulation to a linalool concentration in the water of 75 ppm instead of 50 ppm. After 2 minutes of exposure to linalool the fish appeared to be in slight stress. […] At 20 minutes the fish was removed to a recovery tank with clean water. Thereafter it recovered slowly and after 40 minutes was swimming around in the tank and appeared to have resumed normal activity.
as §2, with “12.5” for “12”, “100” for “75”, “ppm.” for “ppm. After 2 minutes of exposure to linalool the fish appeared to be in slight stress.”, “6” for “20”, “30” for “40”
To a four liter tank containing three one-year old Koi fish of respective weights 30 g, 29 g and 31 g and respective body lengths 11 cm, 12 cm and 12.5 cm in water at 21° C. and pH 7 was added a formulation containing 1% linalool. The formulation was added to the water to a linalool concentration of 50 ppm in the water. The fish became relaxed 6 minutes after addition of linalool and after 9 minutes were completely anesthetized. At 9 5 minutes the fish were removed to a recovery tank with fresh water. After 40 minutes in the recovery tank the fish resumed normal behavior.

[2] = test system: Ramirez fish; experiment: Anesthesia of Ramirez fish by linalool or Ho Wood oil added to tank water; format: in vivo
Method: as §1
This experiment repeated the experiment of Example 1, using three goldfish (Carassius auratus auratus, average body length 12.5 cm) and five Ramirez fish (Mikrogeophagus ramirezi, body length 3.5-4 cm). All fishes appeared to be healthy. The goldfish tank held 4 liters of water and the tank holding the Ramirez fish one liter.
The experiment of example 9 was repeated, this time using five nine-month old Ramirez fish (M. ramirezi) in a one-liter tank. The respective weights were 0.8 g, 0.75 g, 0.7 g, 0.85 g and 0.75 g and the respective body lengths were 3.5 cm, 3.5 cm, 3 cm, 4 cm and 3 cm. The water temperature was 26° C. and the pH was 7. The fish became relaxed 2 minutes after addition of linalool, and after 5 minutes the fish were completely anesthetized. After 10 minutes the fish were removed to a recovery tank with fresh water. After 5 minutes in the recovery tank the fish had resumed normal behavior.
The experiment of Example 21 was repeated, using four one-year old Ramirez fish of respective body lengths 3, 2.5, 3 and 3.5 cm, and adding the Ho Wood oil to a linalool concentration of 50 ppm in the water. […] At 2.5 minutes the fish were removed to a recovery tank with clean water. After 7 minutes in the recovery tank they swam around and appeared to have resumed normal activity.
The experiment of Example 21 was repeated, using four 1-year old Ramirez fish of respective body lengths 3, 3.5, 3.5 and 4 cm, and adding the Ho Wood oil to a linalool concentration in the water of 75 ppm instead 50 ppm. […] At 1.5 minutes the fish were removed to a recovery tank with clean water. After 7 minutes in the recovery tank the fish swam around and appeared to have resumed normal activity.

[3] = Example 1: Koi 11 cm, 50 ppm linalool in water, 25° C.
[4] = Example 2: Koi 12 cm, 75 ppm linalool in water
[5] = Example 3: Koi 12.5 cm, 100 ppm linalool in water
[6] = Example 18: three Koi 29-31 g, 50 ppm linalool, 21° C., pH 7
[7] = Example 12: five Ramirez fish 0.7-0.85 g, experiment of example 9 (50 ppm linalool), 26° C., pH 7

## C=CC(C)(O)CCC=C(C)C (stereo not drawn) [linalool]
[1]; [3]
  time of exposure until complete loss of equilibrium: 6.5 min
  time of exposure until fish swam on its back: 8 min
  time of exposure until no response to external stimulation: 9 min
  time of exposure until partial loss of equilibrium: 5.5 min
  time of exposure until slight stress: 2.5 min
[1]; Example 1: Koi 11 cm, 50 ppm linalool, removed to clean water at 9.5 minutes
  time in recovery tank until normal activity resumed: 45 min
[1]; [4]
  time of exposure until complete loss of equilibrium: 7 min
  time of exposure until no response to external stimulation: 9 min
  time of exposure until slight stress: 2 min
[1]; Example 2: Koi 12 cm, 75 ppm linalool, removed to clean water at 20 minutes
  time in recovery tank until normal activity resumed: 40 min
[1]; [5]
  time of exposure until complete loss of equilibrium: 4 min
  time of exposure until no response to external stimulation: 5.5 min
  time of exposure until partial loss of equilibrium: 2.5 min
[1]; Example 3: Koi 12.5 cm, 100 ppm linalool, removed to clean water at 6 minutes
  time in recovery tank until normal activity resumed: 30 min
[1]; Example 18: Koi, 50 ppm linalool, 21° C., removed at 9 5 minutes
  time in recovery tank until normal behavior resumed: 40 min
[1]; [6]
  time after addition of linalool until fish became relaxed: 6 min
  time until fish completely anesthetized: 9 min
[2]; Example 7: five Ramirez fish 3.5-4 cm, experiment of Example 1 repeated
  mortality during a further three days of observation: no mortality occurred
[2]; Example 12: Ramirez fish, 26° C., removed after 10 minutes
  time in recovery tank until normal behavior resumed: 5 min
[2]; [7]
  time after addition of linalool until fish became relaxed: 2 min
  time until fish completely anesthetized: 5 min
